Among the data in US8221733B2, “Virucidal disinfectant” (priority 2002, dated 2012) are virus concentration values, retold here.

Like-named read-outs stand apart in the source and are kept apart here. A value given as a limit tells only on which side of the number the result lay.

The subject of this assay is poliovirus type 1 (Mahoney strain). The class given is cell-based. The following applies: 0.7% strength formaldehyde.

As for `C=O` [formaldehyde], the virus concentration was 1.05e+06 mL⁻¹ (exposure time 5 min), 1000 mL⁻¹ (exposure time 15 min) and no more than 500 mL⁻¹ (exposure time 60 min).
